The record followed here is PMC3189933, “Acylpeptide Hydrolase Inhibition as Targeted Strategy to Induce Proteasomal Down-Regulation” (PLoS ONE, 2011).

One data set deals with APEH in Caco-2 cells. The experiment in a line: APEH activity in Caco-2 cells. The following applies: differentiated Caco-2 cells, 200 µM, 48 h (maximum effect).
In data set [1] the test system is proteasome CT-like activity in Caco-2 cells. The data set can be described thus: CT-like proteasome activity in Caco-2 cells.
Protocol: The synthetic fluorescent substrate N-succinyl-Leu-Leu-Val-Tyr-7-amido-4-methylcoumarin (N-Suc-LLVT-AMC) was used for the measurement of the CT-like activity of the proteasome, at a final concentration of 0.080 mM. The reaction mixture (0.9 mL) containing appropriate amount of proteasome was preincubated as above, in Tris buffer. N-Suc-LLVT-AMC was added, and the release of the fluorescent product (7-AMC) was monitored for 5 min in a Perkin–Elmer LS 50B fluorimeter. The excitation and emission wavelengths were 380 nm and 460 nm, respectively.
Caco-2 cells (ATCC) were cultivated in DMEM supplemented with 10% FBS, 1 mM glutamine and 100 units/mL penicillin-streptomycin at 37°C in a humidified 5% CO2 atmosphere. The cells were studied between passages 12 and 22. The cells were split using trypsin-EDTA solution and plated in 6-well plates at a density of 8×10^4 cells/mL and the medium was replaced every 2–3 days. […]
Following the treatments, the BHK and Caco-2 cells were washed three times with ice cold phosphate-buffered saline and collected immediately at 4°C in lysis buffer (1% Triton X-100, 0.1% SDS, 20 mM Tris-HCl, pH 8.0, 150 mM NaCl, 0.5% sodium deoxycholate and complete protease inhibitors [Roche]). […] The protein concentrations in the clear supernatants were determined (BCA protein assay reagent kit; Pierce) before their use in enzymatic assays or SDS–PAGE.
Data set [2] concerns the target T1, partially purified proteasome from Caco-2 cells (Homo sapiens, UniProt P28074).
T1 construct: a partially purified proteasome fraction from differentiated Caco-2 cells; endogenous in cells; host or cells: Caco-2
T1 sequence (P28074 60-263): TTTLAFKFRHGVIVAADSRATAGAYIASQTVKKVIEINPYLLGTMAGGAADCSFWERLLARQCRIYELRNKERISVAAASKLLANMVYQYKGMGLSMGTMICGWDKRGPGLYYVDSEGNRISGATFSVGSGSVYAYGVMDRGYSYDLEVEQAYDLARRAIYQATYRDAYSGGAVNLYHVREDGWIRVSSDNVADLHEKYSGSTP
The experiment in a line: CT-like activity of partially purified proteasome from Caco-2 cells (cell-free). It counts as biochemical. The note with it: proteasome 0.12 mg/mL, pre-incubated 30 min at 37°C. How it is done: APEH from Sulfolobus solfataricus was purified as previously reported. Partial purification of human APEH and proteasome was carried out from protein extracts of Caco-2 cell. Briefly, protein extracts (500 µg) were fractionated by gel filtration chromatography on a Superdex 200 PC 3.2/30 column connected to a SMART System (Pharmacia) equilibrated in buffer 50 mM Tris-HCl, pH 7.5, 100 mM NaCl, at 0.1 mL/min. The eluted fractions were assayed using the specific substrates for APEH and the proteasome. The active fractions were collected and used for further analysis.
Protease inhibitor activities of the SsCEI peptides and the CLA isomers were carried out using a fixed amount of APEH or partially purified proteasome (3–5 nM and 0.12 mg/mL, respectively), and increasing the SsCEI and CLA isomer concentrations. Mixtures were pre-incubated for 30 min at 37°C before the addition of the substrate, and the enzymatic activities were followed as described above. Protease inhibitor activities of the SsCEI peptides and the CLA isomers were determined towards APEHSs. The protease and increasing concentrations of the inhibitors were mixed and preincubated for 30 min at 80°C before the addition of the specific substrate. The residual enzymatic activity was determined using the assay procedure described above.

In another data set the target is T2, porcine APEH (Sus scrofa, UniProt P19205).
T2 construct: mammalian APEHs purified from both porcine liver and human colon carcinoma intestinal cells (Caco-2); purchased Takara; host or cells: porcine liver
T2 sequence (P19205 1-732): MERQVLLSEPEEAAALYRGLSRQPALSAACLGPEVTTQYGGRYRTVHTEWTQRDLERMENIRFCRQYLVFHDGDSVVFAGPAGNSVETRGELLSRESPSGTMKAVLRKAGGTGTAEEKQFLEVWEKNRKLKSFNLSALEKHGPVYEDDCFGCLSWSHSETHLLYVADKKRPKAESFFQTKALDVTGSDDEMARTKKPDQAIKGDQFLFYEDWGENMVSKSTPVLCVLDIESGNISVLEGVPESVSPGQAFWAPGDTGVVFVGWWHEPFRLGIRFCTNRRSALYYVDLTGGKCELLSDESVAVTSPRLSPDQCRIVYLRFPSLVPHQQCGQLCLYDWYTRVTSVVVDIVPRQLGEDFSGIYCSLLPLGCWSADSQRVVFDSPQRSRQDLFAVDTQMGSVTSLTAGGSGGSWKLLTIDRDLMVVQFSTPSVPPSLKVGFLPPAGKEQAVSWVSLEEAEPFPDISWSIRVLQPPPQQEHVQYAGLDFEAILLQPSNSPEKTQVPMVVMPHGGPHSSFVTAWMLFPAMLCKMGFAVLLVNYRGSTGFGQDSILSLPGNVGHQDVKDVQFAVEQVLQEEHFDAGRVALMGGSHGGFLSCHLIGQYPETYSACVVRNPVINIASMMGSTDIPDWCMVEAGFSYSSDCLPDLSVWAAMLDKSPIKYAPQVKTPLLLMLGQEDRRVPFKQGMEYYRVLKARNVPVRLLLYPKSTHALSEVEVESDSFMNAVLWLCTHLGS
The data set can be described thus: Time-dependent inhibition of APEH. It counts as biochemical. The note with it: pre-incubation at least 20 min at 37°C, then diluted 1:5 into assay mixture with substrate. How it is done:
The time-dependent inhibition of SsCEI 4 and t10c12-CLA towards APEH was assessed. Mixtures containing appropriate amounts of each inhibitor and of APEH were pre-incubated for 20 min at 37°C; they were then diluted (1∶5) into the standard assay mixture, which contained the substrate only. The enzymatic activity was followed as described above. Control samples were prepared by pre-incubating the same amounts of APEH without the inhibitors and then diluted in the standard assay mixture.

Data set [3] deals with ΔF508 CFTR-3HA (CFTR-M) in BHK cells. The experiment in a line: CFTR-M accumulation in BHK cells (immunoblot). The note with it: 100 µM, 24 h, densitometry vs untreated. It counts as cell-based, Baby Hamster. As to the method:
(§1) The cells were plated in 12-well plates, to a confluence of 60% for the 24-h incubations, and 40% for 48-h exposure to PIs. These treatments were initiated 24-h after the plating of the cells. Phase-contrast images of the cells were taken just before the lysis of the cells for protein analysis, using a Lica DM6000 inverted microscope.

In data set [4] the test system is proteasome CT-like activity in BHK cells. The data set can be described thus: CT-like proteasome activity in BHK cells. It counts as cell-based, Baby Hamster. The note with it: 50 and 100 µM, 48 h. As to the method: as §1

Protocol for APEH in Caco-2 cells: Porcine liver APEH activity was measured spectrophotometrically using the chromogenic substrate acetyl-Ala-pNA (Bachem). The reaction mixture (1 mL) containing pure APEH (38 ng) or an appropriate amount of cell extract in 50 mM Tris-HCl buffer pH 7.5 (Tris Buffer), was preincubated at 37°C for 2 min. Then, 1 mM acetyl-Ala-pNA was added and the release of p-nitroanilide (ε410 = 8800 M-1 cm-1) was measured by recording the absorbance increase at 410 nm on a Cary 100 Scan (Varian) UV/Vis spectrophotometer, equipped with a thermostated cuvette compartment. APEH activity was expressed in IU. The APEHSs activity was measured using acetyl-Leu-pNA (0.1 mM) (Sigma) as substrate. The reaction mixture (1 mL) containing the appropriate amount of enzyme in 25 mM Tris-HCl buffer pH 7.5, was preincubated at 80°C for 2 min. Then, 0.1 mM acetyl-Leu-pNA was added and the release of p-nitroanilide was measured, following the standard assay procedure described above.
Caco-2 cells (ATCC) were cultivated in DMEM supplemented with 10% FBS, 1 mM glutamine and 100 units/mL penicillin-streptomycin at 37°C in a humidified 5% CO2 atmosphere. The cells were studied between passages 12 and 22. The cells were split using trypsin-EDTA solution and plated in 6-well plates at a density of 8×10^4 cells/mL and the medium was replaced every 2–3 days. Under these conditions, the cells reached visual confluence after 7 days and the differentiated stage two weeks later. The differentiated cells were incubated for 48 h with the different substances.
Following the treatments, the BHK and Caco-2 cells were washed three times with ice cold phosphate-buffered saline and collected immediately at 4°C in lysis buffer (1% Triton X-100, 0.1% SDS, 20 mM Tris-HCl, pH 8.0, 150 mM NaCl, 0.5% sodium deoxycholate and complete protease inhibitors [Roche]). The lysates were centrifuged at 10,000×g for 15 min at 4°C. The protein concentrations in the clear supernatants were determined (BCA protein assay reagent kit; Pierce) before their use in enzymatic assays or SDS–PAGE.

As for `CCCCC/C=C\C=C\CCCCCCCCC(=O)O` [t10c12-CLA, trans10-cis12 CLA], the “decrease of APEH activity in Caco-2 cells” value with APEH in Caco-2 cells turned out to be 50%. Besides, the “reduction in proteasomal CT-like activity” value in data set [1] (200 µM, 48 h) came out at 40%. For the same molecule, the “dose-dependent decrease of CT-like proteasome activity in Caco-2 cells” value in data set [1] (increasing concentrations, printed 'up to 45% of the residual activity' vs untreated) is listed as “up to 45%”. Besides, the “effect on partially purified proteasome CT-like activity” value in data set [2] is “not affected”. Further, the “inhibition of APEH after pre-incubation with the enzyme” value at porcine APEH turned out to be 43%. Further, the “increase of CFTR-M levels” value in data set [3] is on record as “five”. Moreover, in data set [4], the “proteasome CT-like activity in BHK cells” value was “dose-dependent inhibition”.
